From ChEMBL document CHEMBL3227941, “3-Substituted adenines. In vitro enzyme inhibition and antiviral activity” (J Med Chem, 1979)

Assays:
[1] = system: Human alphaherpesvirus 1; experiment: Antiviral activity against HSV1 infected in African green monkey BSC-1 cells assessed as inhibition of virus multiplication at 6 ug/ml after 96 hrs by plaque reduction assay; assay type: functional; details: Human alphaherpesvirus 1, BSC-1, 96 h
[2] = system: Vaccinia virus; experiment: Antiviral activity against Vaccinia virus infected in African green monkey BSC-1 cells assessed as inhibition of virus multiplication at 25 ug/ml after 96 hrs by plaque reduction assay; assay type: functional; details: Orthopoxvirus vaccinia, BSC-1, 96 h
[3] = system: Human alphaherpesvirus 1; experiment: Antiviral activity against HSV1 infected in African green monkey BSC-1 cells assessed as inhibition of virus multiplication at 50 ug/ml after 96 hrs by plaque reduction assay; assay type: functional; details: Human alphaherpesvirus 1, BSC-1, 96 h
[4] = Cytotoxicity against Vaccinia virus infected African green monkey BSC1 cells at 100 ug/ml; assay type: cell-based; details: chlorocebus aethiops, bsc-1
[5] = system: Human alphaherpesvirus 1; experiment: Antiviral activity against HSV1 infected in African green monkey BSC-1 cells assessed as inhibition of virus multiplication at 25 ug/ml after 96 hrs by plaque reduction assay; assay type: functional; details: Human alphaherpesvirus 1, BSC-1, 96 h
[6] = system: Human alphaherpesvirus 1; experiment: Antiviral activity against HSV1 infected in African green monkey BSC-1 cells assessed as inhibition of virus multiplication at 12 ug/ml after 96 hrs by plaque reduction assay; assay type: functional; details: Human alphaherpesvirus 1, BSC-1, 96 h
[7] = system: Vaccinia virus; experiment: Antiviral activity against Vaccinia virus infected in African green monkey BSC-1 cells assessed as inhibition of virus multiplication at 12 ug/ml after 96 hrs by plaque reduction assay; assay type: functional; details: Orthopoxvirus vaccinia, BSC-1, 96 h
[8] = system: Vaccinia virus; experiment: Antiviral activity against Vaccinia virus infected in African green monkey BSC-1 cells assessed as inhibition of virus multiplication at 50 ug/ml after 96 hrs by plaque reduction assay; assay type: functional; details: Orthopoxvirus vaccinia, BSC-1, 96 h
[9] = target: T1, Dopamine beta-hydroxylase (Bos taurus, UniProt P15101); experiment: Inhibition of bovine adrenal medullae dopamine-beta-hydroxylase; parameters: species or system Adrenal medulla; details: read-out: I50 (converted)
T1 sequence (P15101 whole entry): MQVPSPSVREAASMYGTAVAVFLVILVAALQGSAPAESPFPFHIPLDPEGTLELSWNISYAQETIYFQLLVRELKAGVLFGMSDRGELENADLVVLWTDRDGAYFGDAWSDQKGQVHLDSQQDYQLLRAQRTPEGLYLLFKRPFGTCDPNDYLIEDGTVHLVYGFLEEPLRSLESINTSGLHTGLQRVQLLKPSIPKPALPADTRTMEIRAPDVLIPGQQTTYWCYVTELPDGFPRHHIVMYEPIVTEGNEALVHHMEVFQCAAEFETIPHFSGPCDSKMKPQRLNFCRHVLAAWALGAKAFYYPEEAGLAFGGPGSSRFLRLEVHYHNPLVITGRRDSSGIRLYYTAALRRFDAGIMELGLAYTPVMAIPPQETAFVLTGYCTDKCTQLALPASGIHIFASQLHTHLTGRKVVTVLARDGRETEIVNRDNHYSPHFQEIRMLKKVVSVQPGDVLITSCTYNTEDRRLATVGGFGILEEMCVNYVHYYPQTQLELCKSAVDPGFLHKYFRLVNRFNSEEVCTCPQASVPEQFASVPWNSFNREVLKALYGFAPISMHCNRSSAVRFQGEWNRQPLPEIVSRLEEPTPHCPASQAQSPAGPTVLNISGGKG

[10] = system: Vaccinia virus; experiment: Antiviral activity against Vaccinia virus infected in African green monkey BSC-1 cells assessed as inhibition of virus multiplication at 100 ug/ml after 96 hrs by plaque reduction assay; assay type: functional; details: Orthopoxvirus vaccinia, BSC-1, 96 h
[11] = Cytotoxicity against HSV1 infected African green monkey BSC1 cells at 50 ug/ml; assay type: cell-based; details: chlorocebus aethiops, bsc-1
[12] = Cytotoxicity against Vaccinia virus infected African green monkey BSC1 cells at 50 ug/ml; assay type: cell-based; details: chlorocebus aethiops, bsc-1
[13] = Cytotoxicity against Vaccinia virus infected African green monkey BSC1 cells at 25 ug/ml; assay type: cell-based; details: chlorocebus aethiops, bsc-1
[14] = system: Vaccinia virus; experiment: Antiviral activity against Vaccinia virus infected in African green monkey BSC-1 cells assessed as inhibition of virus multiplication at 6 ug/ml after 96 hrs by plaque reduction assay; assay type: functional; details: Orthopoxvirus vaccinia, BSC-1, 96 h
[15] = system: Vaccinia virus; experiment: Antiviral activity against Vaccinia virus infected in African green monkey BSC-1 cells assessed as inhibition of virus multiplication at 3 ug/ml after 96 hrs by plaque reduction assay; assay type: functional; details: Orthopoxvirus vaccinia, BSC-1, 96 h

Compound | inhibition at 6 µg/mL [1] [%] | inhibition at 25 µg/mL [2] [%] | inhibition at 50 µg/mL [3] [%] | Activity [4] | inhibition at 25 µg/mL [5] [%] | inhibition at 12 µg/mL [6] [%] | inhibition at 12 µg/mL [7] [%] | inhibition at 50 µg/mL [8] [%] | IC50 [9] [µM] | inhibition at 100 µg/mL [10] [%] | Activity [11] | Activity [12] | Activity [13] | inhibition at 6 µg/mL [14] [%] | inhibition at 3 µg/mL [15] [%]
Cc1ccc(Cn2cnc(N)c3ncnc2-3)cc1 | 0 | 8 | 0 | Toxic | 0 | 0 | 0 | 10 | 83.6 |  |  |  |  |  | 
Nc1ncn(Cc2ccccc2)c2ncnc1-2 [3-BENZYLADENINE] | 0 | 0 | 0 |  | 0 | 0 | 0 | 3 | 8.88 | 3 |  |  |  |  | 
CCCCCn1cnc(N)c2ncnc1-2 | 0 | 35 | 3 |  | 0 | 0 | 33 | 72 | 2.44 | 96 |  |  |  |  | 
Nc1ncn(Cc2ccc(Cl)c(Cl)c2)c2ncnc1-2 | 0 |  |  | Toxic | 27 | 0 | 100 |  | 6.8 |  | Toxic | Toxic | Toxic | 87 | 47
Cc1cccc(Cn2cnc(N)c3ncnc2-3)c1 | 0 | 0 | 9 | Toxic | 0 | 0 | 0 | 0 | 83.6 |  |  |  |  |  | 
CC(C)CCn1cnc(N)c2ncnc1-2 | 0 | 7 | 27 |  | 0 | 0 | 0 | 7 | 974 | 8 |  |  |  | 0 | 
CCCCn1cnc(N)c2ncnc1-2 [3-BUTYLADENINE] | 0 | 0 | 0 |  | 0 | 0 | 0 | 0 | 105 | 1 |  |  |  |  | 
Nc1ncn(Cc2ccc(Cl)cc2Cl)c2ncnc1-2 | 0 |  |  | Toxic | 20 | 0 | 0 |  | 680 |  | Toxic | Toxic | Toxic | 0 | 
CCCn1cnc(N)c2ncnc1-2 [3-PROPYLADENINE] | 0 | 0 | 0 |  | 0 | 0 | 0 | 0 | 1130 | 0 |  |  |  | 0 | 
Nc1ncn(CC2CCCCC2)c2ncnc1-2 | 0 | 0 | 0 |  | 0 | 0 | 0 | 7 | 8.65 |  |  |  |  |  | 
CCCCCCn1cnc(N)c2ncnc1-2 | 0 | 77 | 16 | Toxic | 0 | 0 | 27 | 100 | 4.56 |  |  |  |  |  | 
Nc1ncn(Cc2cccc(C(F)(F)F)c2)c2ncnc1-2 |  |  |  |  |  |  |  |  | 68.2 |  |  |  |  |  | 
Nc1ncn(Cc2cccc(Cl)c2)c2ncnc1-2 | 0 | 16 | 45 |  | 0 | 0 | 0 | 37 | 7.7 | 100 |  |  |  | 0 | 
CCn1cnc(N)c2ncnc1-2 [3-ETHYLADENINE] | 0 | 0 | 0 |  | 0 | 0 | 0 | 0 | > 1230 | 0 |  |  |  | 0 | 
Nc1ncn(Cc2ccco2)c2ncnc1-2 | 0 | 0 | 0 |  | 0 | 0 |  | 0 |  | 0 |  |  |  |  | 
Nc1ncn(Cc2ccc(Cl)cc2)c2ncnc1-2 | 0 | 70 | 15 | Toxic | 0 | 0 | 51 | 100 | 77 |  |  |  |  |  | 
Cc1ccccc1Cn1cnc(N)c2ncnc1-2 | 0 | 0 | 30 | Toxic | 0 | 0 | 0 | 0 | 836 |  |  |  |  |  | 
Nc1ncn(Cc2ccccc2Cl)c2ncnc1-2 | 0 | 0 | 100 | Toxic | 100 | 42 | 0 | 100 | 770 |  |  |  |  | 0 | 0
